According to patent publication US20100120679A1, “Targeting NBS1-ATM Interaction To Sensitize Cancer Cells To Radiotherapy And Chemotherapy” (SOUTHERN RESEARCH INSTITUTE, priority 2006, published 2010):
Peptide text beside a SMILES is read from it. * marks the point of attachment. Biotin = O=C1N[C@H]2[C@H](CS[C@H]2CCCCC(=O)*)N1

What was measured:
[1] = system: NBS1 phosphorylation on serine 343 in DU-145 cells; test: IR-induced NBS1 pSer343 focus formation, DU-145; format: cell-based, human; settings: DU-145, 10 μM peptide, 6Gy, 120 minutes
Text: (§1) Error bars represent +/−1 SD, graphed are the mean of three independent experiments.
To further support the idea that wtNIP can inhibit ATM-mediated DNA damage pathways, IR-induced NBS1 focus formation, an event considered to be an ATM-dependent process at the sites of DSBs (Lim et al., 2000) was investigated. NBS1 foci are a result of ATM-mediated NBS1 phosphorylation on serine 343. […] The average number of foci in mock-irradiated HeLa cells was 6, 8, and 6 for R9, wtNIP, and scNIP, respectively.

[2] = system: prostate cancer cell line DU-145; test: Colony formation assay (radiosensitivity), DU-145; format: cell-based, human
Procedure: (§2) Colony number was determined with a dissecting microscope. […] The following formula was used: […]
Radiation survival curves were characterized based on Do to define the effect of NIP effect on radiosensitivity. D0 represents the mean lethal dose required for 37% survival and is a measure of the intrinsic radiosensitivity of the cell. D0 values for HeLa treated with wtNIP were 1.9 compared with 3.0 for cells treated with scNIP. To establish the statistical significance of wtNIP-induced radiosensitivity, Student's t test (paired two-sample for means) was incorporated. […] Significant differences (p<0.05) in clonogenic survival were observed between cells treated with wtNIP and those treated with DMEM, R9, or scNIP. The SER was 1.58. […] These observations have been confirmed in the prostate cancer cell line DU-145 with an SER of 1.46. Taken as a whole, they provide strong evidence for the radiosensitizing potential of the wtNIP peptide.

NBS1-ATM interaction = target: T1, NBS1-ATM interaction (Homo sapiens, UniProt Q13315); test: Co-immunoprecipitation of ATM with NBS1 in peptide-treated cells; format: cell-based
T1 construct: endogenous in cells; host or cells: HeLa
Procedure: HeLa cells treated with the NIP peptides were irradiated (0 or 6Gy). Immunoprecipitation was performed with a rabbit NBS1 antibody, and Western blotting was performed with monoclonal antibodies against ATM, NBS1 or MRE11.
Immunoprecipitation and Western blotting: For co-immunoprecipitation of ATM, NBS1 and MRE11, cells were lysed 1 hour in ice-cold lysis buffer, which consisted of 10 mM Tris-HCl (pH 7.5), 100 mM NaCl, 5 mM EDTA, 0.5% NP-40, 5 mM Na3VO4, 1 mM NaF, and 1 mM PMSF. After centrifugation, supernatants were incubated with indicated antibodies. After extensive washing with the lysis buffer, immunoprecipitates were analyzed by immunoblot using specific antibodies. For western blotting analysis, samples (cell lysates or immunoprecipitates) were separated on 4-12% SDS-poly-acrylamide gels, transferred to nitrocellulose membranes, and probed with various antibodies.
wtNIP Abrogated the NBS1-ATM Interaction: To investigate whether R9-conjugated NIP peptides could inhibit NBS1-ATM interactions, coimmunoprecipitation experiments were performed in cells treated with the NIP peptides. Four hours after peptide treatment, HeLa cells were harvested and subjected to immunoprecipitation using an anti-NBS1 antibody. The immunoprecipitates were then blotted with anti-ATM, NBS1, and MRE11 antibodies.

[3] = system: γ-H2AX foci in HeLa cells; test: IR-induced γ-H2AX focus formation, HeLa; format: cell-based, human
Text: as §1
wtNIP Inhibits IR-Induced γ-H2AX and NBS1 pSer343 Focus Formation: One of the earliest responses to IR-induced DNA damage is the formation of γ-H2AX foci, which requires functional ATM (Burma et al., 2001; Furuta et al., 2003). […] Immunofluorescence microscopy was used to detect the presence of γ-H2AX foci in mock-irradiated or irradiated cells in the presence of R9, wtNIP or scNIP. […] Therefore, IR-induced γ-H2AX focus formation can be inhibited by wt-NIP.

HeLa cells = test: Length of time the peptides remain in cells (degradation, immunofluorescence)
Procedure: HeLa cells were treated with 10 μM R9, wtNIP, or scNIP for one hour and harvested at indicated time points before they were analyzed by immunofluorescence microscopy staining with an […].
Immunofluorescence microscopy: Exponentially growing cultures of cells were plated on sterile, […] coverslips, and incubated for 24 hours at 37° C. in 5% CO2 humidified air before they are treated with the NIP peptides at room temperature. Coverslips were washed with PBS and fixed with 4% paraformaldehyde-0.25% Triton X-100 for 15 minutes at room temperature, blocked for 30 minutes at room temperature, and incubated with FITC-conjugated streptavidin or anti-γH2AX and phospho-NBS1 antibodies (Rockland Immunochemicals, Gilbertsville, Pa.) for 1 hour at room temperature. Coverslips were then mounted with Vectashield Elite (Vector Labs, Burlingame, Calif.) and observed with a Leica fluorescence microscope. Images were captured at 40× magnification using a Q Imaging Retiga Exi digital camera and analyzed with Image Pro-Plus 5.1 software.
Because the peptides would be used in radiation studies, the length of time the peptides remain in cells was determined to ensure that the peptides would be present throughout the DNA repair process after IR.

[4] = system: M059J cells (defective DNA-PKcs); test: Colony formation assay (radiosensitivity), M059J; format: cell-based
Procedure: as §2
(§3) To test this possibility, colonyforming assays were performed in cell lines with defective ATM (GM9607) or DNA-PKcs (M059J). […] Because GM9607 cells are ATM-deficient and have functional ATR and DNA-PKcs, these observations strongly indicate that wtNIP can specifically target ATM, but not ATR or DNA-PKcs, to achieve radiosensitization.

[5] = system: GM9607 cells (defective ATM); test: Colony formation assay (radiosensitivity), GM9607; format: cell-based, human
Procedure: as §2, §3

T1 sequence (Q13315 whole entry): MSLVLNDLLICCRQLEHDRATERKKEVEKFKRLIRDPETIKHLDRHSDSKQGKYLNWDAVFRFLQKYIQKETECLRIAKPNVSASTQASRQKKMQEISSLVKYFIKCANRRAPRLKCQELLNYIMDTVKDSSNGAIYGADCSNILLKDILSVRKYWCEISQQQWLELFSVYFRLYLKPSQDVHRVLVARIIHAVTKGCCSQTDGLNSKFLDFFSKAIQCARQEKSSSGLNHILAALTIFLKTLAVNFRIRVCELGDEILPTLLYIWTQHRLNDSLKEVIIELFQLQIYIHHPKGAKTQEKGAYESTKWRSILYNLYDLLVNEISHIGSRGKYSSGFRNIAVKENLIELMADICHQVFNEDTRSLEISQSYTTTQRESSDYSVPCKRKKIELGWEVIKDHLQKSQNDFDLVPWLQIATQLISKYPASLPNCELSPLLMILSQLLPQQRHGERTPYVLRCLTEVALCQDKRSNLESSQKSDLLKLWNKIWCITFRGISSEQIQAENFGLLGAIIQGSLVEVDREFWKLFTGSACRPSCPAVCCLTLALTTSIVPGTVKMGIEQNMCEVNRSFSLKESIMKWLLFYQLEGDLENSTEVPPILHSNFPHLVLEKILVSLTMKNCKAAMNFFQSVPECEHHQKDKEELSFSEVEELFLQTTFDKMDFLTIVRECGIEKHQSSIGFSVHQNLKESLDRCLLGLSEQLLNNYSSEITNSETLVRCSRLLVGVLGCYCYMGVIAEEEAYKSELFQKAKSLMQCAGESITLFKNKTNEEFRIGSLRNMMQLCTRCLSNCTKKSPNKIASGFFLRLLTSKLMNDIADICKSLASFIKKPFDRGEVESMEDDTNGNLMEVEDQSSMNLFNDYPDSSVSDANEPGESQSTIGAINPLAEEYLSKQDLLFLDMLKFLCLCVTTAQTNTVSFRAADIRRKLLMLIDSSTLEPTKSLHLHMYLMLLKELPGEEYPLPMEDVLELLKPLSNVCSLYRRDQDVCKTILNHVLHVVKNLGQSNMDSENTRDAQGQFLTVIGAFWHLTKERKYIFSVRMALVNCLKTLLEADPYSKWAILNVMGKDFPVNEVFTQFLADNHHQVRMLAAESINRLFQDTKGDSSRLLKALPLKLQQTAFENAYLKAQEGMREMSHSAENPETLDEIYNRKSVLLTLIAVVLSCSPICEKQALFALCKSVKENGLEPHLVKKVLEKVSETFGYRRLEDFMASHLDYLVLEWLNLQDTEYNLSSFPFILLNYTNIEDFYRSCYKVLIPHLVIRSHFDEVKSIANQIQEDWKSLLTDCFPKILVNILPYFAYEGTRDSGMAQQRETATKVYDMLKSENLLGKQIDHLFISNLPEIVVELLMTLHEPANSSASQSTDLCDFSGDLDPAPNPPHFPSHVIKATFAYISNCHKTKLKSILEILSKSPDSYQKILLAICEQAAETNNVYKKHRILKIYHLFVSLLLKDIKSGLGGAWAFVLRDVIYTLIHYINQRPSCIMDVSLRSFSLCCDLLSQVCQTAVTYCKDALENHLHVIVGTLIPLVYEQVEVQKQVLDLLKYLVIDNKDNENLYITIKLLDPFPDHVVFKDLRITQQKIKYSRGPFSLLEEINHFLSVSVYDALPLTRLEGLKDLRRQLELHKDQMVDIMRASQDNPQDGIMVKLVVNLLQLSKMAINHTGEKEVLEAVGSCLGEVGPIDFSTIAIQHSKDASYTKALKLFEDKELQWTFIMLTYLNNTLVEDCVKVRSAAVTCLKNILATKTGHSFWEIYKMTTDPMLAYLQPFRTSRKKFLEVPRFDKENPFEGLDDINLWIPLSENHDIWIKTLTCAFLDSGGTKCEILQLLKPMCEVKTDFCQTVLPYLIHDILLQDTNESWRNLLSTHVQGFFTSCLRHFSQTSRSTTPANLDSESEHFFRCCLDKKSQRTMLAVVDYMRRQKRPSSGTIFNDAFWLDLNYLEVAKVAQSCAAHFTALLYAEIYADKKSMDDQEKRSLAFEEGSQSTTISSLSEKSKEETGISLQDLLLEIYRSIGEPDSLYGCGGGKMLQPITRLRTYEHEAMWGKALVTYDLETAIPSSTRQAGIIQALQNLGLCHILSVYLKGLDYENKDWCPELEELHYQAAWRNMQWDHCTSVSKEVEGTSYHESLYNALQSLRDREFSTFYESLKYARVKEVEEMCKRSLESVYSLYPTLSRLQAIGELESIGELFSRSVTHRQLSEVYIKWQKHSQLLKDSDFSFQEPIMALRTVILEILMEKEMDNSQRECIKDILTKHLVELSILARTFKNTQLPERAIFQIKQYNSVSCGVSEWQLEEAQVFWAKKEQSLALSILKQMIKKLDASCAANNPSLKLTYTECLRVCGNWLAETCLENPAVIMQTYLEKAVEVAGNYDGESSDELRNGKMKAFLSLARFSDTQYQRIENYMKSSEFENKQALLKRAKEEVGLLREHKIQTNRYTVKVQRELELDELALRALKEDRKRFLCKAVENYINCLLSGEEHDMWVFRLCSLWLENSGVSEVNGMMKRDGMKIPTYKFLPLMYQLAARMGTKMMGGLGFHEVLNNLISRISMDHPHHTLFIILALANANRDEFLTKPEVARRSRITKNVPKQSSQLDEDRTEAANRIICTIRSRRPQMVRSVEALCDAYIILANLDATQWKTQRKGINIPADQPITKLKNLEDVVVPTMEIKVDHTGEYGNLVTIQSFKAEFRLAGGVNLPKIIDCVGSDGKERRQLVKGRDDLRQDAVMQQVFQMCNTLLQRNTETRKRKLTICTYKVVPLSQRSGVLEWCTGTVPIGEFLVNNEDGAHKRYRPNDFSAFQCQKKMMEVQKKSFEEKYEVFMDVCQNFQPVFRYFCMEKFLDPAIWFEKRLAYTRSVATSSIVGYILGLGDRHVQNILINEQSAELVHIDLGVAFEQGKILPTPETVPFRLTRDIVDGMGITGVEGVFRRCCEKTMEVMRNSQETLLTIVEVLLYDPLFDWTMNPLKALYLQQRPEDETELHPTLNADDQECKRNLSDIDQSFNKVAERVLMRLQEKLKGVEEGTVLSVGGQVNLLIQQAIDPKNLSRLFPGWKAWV

## CC(C)C[C@H](NC(=O)[C@H](CC(=O)O)NC(=O)[C@H](CC(=O)O)NC(=O)[C@H](C)NC(=O)[C@H](CC(C)C)NC(=O)[C@H](CO)NC(=O)[C@H](CCC(=O)O)NC(=O)[C@H](CCC(=O)O)NC(=O)[C@H](CCCCN)NC(=O)[C@H](CCCNC(=N)N)NC(=O)[C@H](CCCNC(=N)N)NC(=O)[C@H](CCCNC(=N)N)NC(=O)[C@H](CCCNC(=N)N)NC(=O)[C@H](CCCNC(=N)N)NC(=O)[C@H](CCCNC(=N)N)NC(=O)[C@H](CCCNC(=N)N)NC(=O)[C@H](CCCNC(=N)N)NC(=O)[C@H](CCCNC(=N)N)NC(=O)CCCC[C@@H]1SC[C@@H]2NC(=O)N[C@@H]21)C(=O)O [wtNIP] (Biotin-RRRRRRRRRKEESLADDL-OH)
[1]
  IR-induced NBS1 phosphorylation: abrogates IR-induced NBS1 phosphorylation
[2]
  SER: 1.46
NBS1-ATM interaction; HeLa cells treated with IR
  ATM-NBS1 association (anti-NBS1 immunoprecipitation, anti-ATM blot): effect similar to that in unirradiated cells
NBS1-ATM interaction; HeLa cells, four hours after peptide treatment, unirradiated
  ATM-NBS1 association (anti-NBS1 immunoprecipitation, anti-ATM blot): NBS1 was no longer able to bring down ATM
[3]; 10 μM peptide, 30 minutes after 6Gy IR
  average number of γ-H2AX foci/nucleus: 6.9 foci/nucleus
[3]; 30 minutes after treatment with 6Gy IR
  inhibition of γ-H2AX foci formation: can inhibit γ-H2AX foci formation
HeLa cells
  presence of peptides in cells: strong distribution
[4]
  SER: 1.83
  change in radiosensitivity: increase in radiosensitivity
[5]
  change in radiosensitivity: no change in radiosensitivity
